# Experimental data published in patent US20050043214A1, “Antiglaucomatous agent and use thereof” (priority 2001, published 2005).
# Test system: Patients with glaucoma
# Assay: Intraocular pressure of glaucoma patients measured by applanation tonometry during eyedrop treatment
# Assay type: in vivo, human
# Settings: average of last six measurements
# Procedure: Patients with glaucoma which had led to glaucomatous damage were treated. All the patients had previously been treated with timolol 0.5% eyedrops, and in some cases with a combination therapy of timolol 0.5% and another antiglaucomatous agent. The initial state of the intraocular pressure was measured during the previous therapy by determining the average of the last six measurements during the previous therapy. Two groups of patients were then treated according to the invention. […] They formed the group of decompensated glaucomas. Group 2 comprised patients who had normalized intraocular pressures on treatment with timolol 0.5%. They formed the group of compensated glaucomas. […] A third group formed of 11 patients was treated in the same manner with eyedrops which contained only 0.5% lactalbumin hydrolyzate fraction from example 5. The intraocular pressure was checked initially after one day, after two days and then weekly. The measurements of intraocular pressure took place at various times of day (morning, midday, late afternoon) by applanation tonometry. In total, 18 patients with an average age of 56.6 years, of whom 8 were male and 10 patients were female, were treated for 9 weeks.
smiles,measurement,setting,value
CC(C)(C)NC[C@H](O)COc1nsnc1N1CCOCC1 [timolol],average intraocular pressure by applanation before the treatment according to the invention,"group 1 decompensated glaucomas, on timolol 0.5% or combination therapy with another antiglaucomatous agent, range of variation 3.6 mmHg",26.4 mmHg
same,average intraocular pressure by applanation before the treatment according to the invention,"group 2 compensated glaucomas, on timolol 0.5%, range of variation 1.6 mmHg",19.2 mmHg
